# In US10131652B2, “Pyrimidinyloxy benzene derivatives as herbicides” (E. I. DU PONT DE NEMOURS AND COMPANY, priority 2014, dated 2018):
# Tests used:
# Test in all cases: Test F pre-/postemergence plant response
# Format in all cases: in vivo
# Conditions in all cases: scale 0 to 100
# [1] = tested on: Brazilian crabgrass (Digitaria horizontalis)
# Method in brief: (§1)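 Visual control ratings were scored 0 (no effect) to 100 (complete control) versus untreated plants after 14–21 greenhouse days. Compounds, formulated in a surfactant-containing non-phytotoxic solvent, were applied both to silt loam at planting (preemergence) and to 1- to 4-leaf plants 2–18 cm tall (postemergence).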
# [2] = tested on: corn (Zea mays)
# Method in brief: as §1
# [3] = tested on: dayflower (Virginia (VA) dayflower, Commelina virginica)
# Method in brief: as §1
# [4] = tested on: fall panicum (Panicum dichotomiflorum)
# Method in brief: as §1
# [5] = tested on: field bindweed (Convolvulus arvensis)
# Method in brief: as §1
# [6] = tested on: giant foxtail (Setaria faberii)
# Method in brief: as §1
# [7] = tested on: goosegrass (Eleusine indica)
# Method in brief: as §1
# [8] = tested on: green foxtail (Setaria viridis)
# Method in brief: as §1
# [9] = tested on: johnsongrass (Sorghum halepense)
# Method in brief: as §1
# [10] = tested on: lambsquarters (Chenopodium album)
# Method in brief: as §1
# [11] = tested on: morningglory (Ipomoea coccinea)
# Method in brief: as §1
# [12] = tested on: palmer pigweed (Amaranthus palmeri)
# Method in brief: as §1
# [13] = tested on: sandbur (southern sandbur, Cenchrus echinatus)
# Method in brief: as §1
# [14] = tested on: soybean (Glycine max)
# Method in brief: as §1
# [15] = tested on: waterhemp (common waterhemp, Amaranthus rudis)
# Method in brief: as §1
# [16] = tested on: wild poinsettia (Euphorbia heterophylla)
# Method in brief: as §1
compound,measurement,setting,value
CC(F)(F)c1cc(-c2ccccc2Oc2ncc(Br)cn2)no1 [Compound 149],"Plant response rating, Crabgrass, Brazil",[1]; 16 g ai/ha Postemergence,20
same,"Plant response rating, Crabgrass, Brazil",[1]; 16 g ai/ha Preemergence,0
same,"Plant response rating, Crabgrass, Brazil",[1]; 31 g ai/ha Postemergence,20
same,"Plant response rating, Crabgrass, Brazil",[1]; 31 g ai/ha Preemergence,15
same,"Plant response rating, Crabgrass, Brazil",[1]; 62 g ai/ha Postemergence,20
same,"Plant response rating, Crabgrass, Brazil",[1]; 62 g ai/ha Preemergence,35
same,"Plant response rating, Crabgrass, Brazil",[1]; 125 g ai/ha Postemergence,25
same,"Plant response rating, Crabgrass, Brazil",[1]; 125 g ai/ha Preemergence,85
same,"Plant response rating, Corn",[2]; 16 g ai/ha Postemergence,0
same,"Plant response rating, Corn",[2]; 16 g ai/ha Preemergence,0
same,"Plant response rating, Corn",[2]; 31 g ai/ha Postemergence,10
same,"Plant response rating, Corn",[2]; 31 g ai/ha Preemergence,0
same,"Plant response rating, Corn",[2]; 62 g ai/ha Postemergence,10
same,"Plant response rating, Corn",[2]; 62 g ai/ha Preemergence,0
same,"Plant response rating, Corn",[2]; 125 g ai/ha Postemergence,15
same,"Plant response rating, Corn",[2]; 125 g ai/ha Preemergence,0
same,"Plant response rating, Dayflower, VA",[3]; 16 g ai/ha Postemergence,10
same,"Plant response rating, Dayflower, VA",[3]; 16 g ai/ha Preemergence,0
same,"Plant response rating, Dayflower, VA",[3]; 31 g ai/ha Postemergence,20
same,"Plant response rating, Dayflower, VA",[3]; 31 g ai/ha Preemergence,0
same,"Plant response rating, Dayflower, VA",[3]; 62 g ai/ha Postemergence,40
same,"Plant response rating, Dayflower, VA",[3]; 62 g ai/ha Preemergence,5
same,"Plant response rating, Dayflower, VA",[3]; 125 g ai/ha Postemergence,50
same,"Plant response rating, Dayflower, VA",[3]; 125 g ai/ha Preemergence,40
same,"Plant response rating, Panicum, Fall",[4]; 16 g ai/ha Postemergence,10
same,"Plant response rating, Panicum, Fall",[4]; 16 g ai/ha Preemergence,0
same,"Plant response rating, Panicum, Fall",[4]; 31 g ai/ha Postemergence,20
same,"Plant response rating, Panicum, Fall",[4]; 31 g ai/ha Preemergence,80
same,"Plant response rating, Panicum, Fall",[4]; 62 g ai/ha Postemergence,20
same,"Plant response rating, Panicum, Fall",[4]; 125 g ai/ha Postemergence,40
same,"Plant response rating, Panicum, Fall",[4]; 125 g ai/ha Preemergence,100
same,"Plant response rating, Panicum, Fall",[4]; Preemergence,98
same,"Plant response rating, Field Bindweed",[5]; 16 g ai/ha Postemergence,60
same,"Plant response rating, Field Bindweed",[5]; 16 g ai/ha Preemergence,0
same,"Plant response rating, Field Bindweed",[5]; 31 g ai/ha Postemergence,50
same,"Plant response rating, Field Bindweed",[5]; 31 g ai/ha Preemergence,50
same,"Plant response rating, Field Bindweed",[5]; 62 g ai/ha Postemergence,50
same,"Plant response rating, Field Bindweed",[5]; 62 g ai/ha Preemergence,35
same,"Plant response rating, Field Bindweed",[5]; 125 g ai/ha Postemergence,75
same,"Plant response rating, Field Bindweed",[5]; 125 g ai/ha Preemergence,25
same,"Plant response rating, Foxtail, Giant",[6]; 16 g ai/ha Preemergence,0
same,"Plant response rating, Foxtail, Giant",[6]; 31 g ai/ha Preemergence,20
same,"Plant response rating, Foxtail, Giant",[6]; 62 g ai/ha Preemergence,40
same,"Plant response rating, Foxtail, Giant",[6]; 125 g ai/ha Preemergence,85
same,"Plant response rating, Goosegrass",[7]; 16 g ai/ha Preemergence,0
same,"Plant response rating, Goosegrass",[7]; 31 g ai/ha Preemergence,0
same,"Plant response rating, Goosegrass",[7]; 125 g ai/ha Preemergence,60
same,"Plant response rating, Goosegrass",[7]; Preemergence,40
same,"Plant response rating, Foxtail, Green",[8]; 16 g ai/ha Preemergence,0
same,"Plant response rating, Foxtail, Green",[8]; 31 g ai/ha Preemergence,0
same,"Plant response rating, Foxtail, Green",[8]; 125 g ai/ha Preemergence,50
same,"Plant response rating, Foxtail, Green",[8]; Preemergence,50
same,"Plant response rating, Johnsongrass",[9]; 16 g ai/ha Preemergence,0
same,"Plant response rating, Johnsongrass",[9]; 31 g ai/ha Preemergence,0
same,"Plant response rating, Johnsongrass",[9]; 125 g ai/ha Preemergence,15
same,"Plant response rating, Johnsongrass",[9]; Preemergence,0
same,"Plant response rating, Lambsquarters",[10]; 31 g ai/ha Preemergence,0
same,"Plant response rating, Lambsquarters",[10]; 125 g ai/ha Preemergence,100
same,"Plant response rating, Lambsquarters",[10]; Preemergence,100
same,"Plant response rating, Morningglory",[11]; 16 g ai/ha Preemergence,0
same,"Plant response rating, Morningglory",[11]; 31 g ai/ha Preemergence,0
same,"Plant response rating, Morningglory",[11]; 125 g ai/ha Preemergence,10
same,"Plant response rating, Morningglory",[11]; Preemergence,0
same,"Plant response rating, Pigweed, Palmer",[12]; 16 g ai/ha Postemergence,65
same,"Plant response rating, Pigweed, Palmer",[12]; 16 g ai/ha Preemergence,25
same,"Plant response rating, Pigweed, Palmer",[12]; 31 g ai/ha Postemergence,95
same,"Plant response rating, Pigweed, Palmer",[12]; 31 g ai/ha Preemergence,90
same,"Plant response rating, Pigweed, Palmer",[12]; 62 g ai/ha Postemergence,98
same,"Plant response rating, Pigweed, Palmer",[12]; 125 g ai/ha Postemergence,100
same,"Plant response rating, Pigweed, Palmer",[12]; 125 g ai/ha Preemergence,100
same,"Plant response rating, Pigweed, Palmer",[12]; Preemergence,100
same,"Plant response rating, Sandbur",[13]; 16 g ai/ha Postemergence,0
same,"Plant response rating, Sandbur",[13]; 16 g ai/ha Preemergence,0
same,"Plant response rating, Sandbur",[13]; 31 g ai/ha Postemergence,5
same,"Plant response rating, Sandbur",[13]; 31 g ai/ha Preemergence,0
same,"Plant response rating, Sandbur",[13]; 62 g ai/ha Postemergence,15
same,"Plant response rating, Sandbur",[13]; 125 g ai/ha Postemergence,10
same,"Plant response rating, Sandbur",[13]; 125 g ai/ha Preemergence,10
same,"Plant response rating, Sandbur",[13]; Preemergence,0
same,"Plant response rating, Soybean",[14]; 16 g ai/ha Postemergence,50
same,"Plant response rating, Soybean",[14]; 16 g ai/ha Preemergence,0
same,"Plant response rating, Soybean",[14]; 31 g ai/ha Postemergence,85
same,"Plant response rating, Soybean",[14]; 31 g ai/ha Preemergence,0
same,"Plant response rating, Soybean",[14]; 62 g ai/ha Postemergence,90
same,"Plant response rating, Soybean",[14]; 125 g ai/ha Postemergence,90
same,"Plant response rating, Soybean",[14]; 125 g ai/ha Preemergence,30
same,"Plant response rating, Soybean",[14]; Preemergence,0
same,"Plant response rating, Waterhemp",[15]; 16 g ai/ha Postemergence,85
same,"Plant response rating, Waterhemp",[15]; 16 g ai/ha Preemergence,35
same,"Plant response rating, Waterhemp",[15]; 31 g ai/ha Postemergence,95
same,"Plant response rating, Waterhemp",[15]; 31 g ai/ha Preemergence,100
same,"Plant response rating, Waterhemp",[15]; 62 g ai/ha Postemergence,95
same,"Plant response rating, Waterhemp",[15]; 125 g ai/ha Postemergence,98
same,"Plant response rating, Waterhemp",[15]; 125 g ai/ha Preemergence,100
same,"Plant response rating, Waterhemp",[15]; Preemergence,100
same,"Plant response rating, Poinsettia, Wild",[16]; 16 g ai/ha Postemergence,50
same,"Plant response rating, Poinsettia, Wild",[16]; 16 g ai/ha Preemergence,0
same,"Plant response rating, Poinsettia, Wild",[16]; 31 g ai/ha Postemergence,40
same,"Plant response rating, Poinsettia, Wild",[16]; 31 g ai/ha Preemergence,0
same,"Plant response rating, Poinsettia, Wild",[16]; 62 g ai/ha Postemergence,60
same,"Plant response rating, Poinsettia, Wild",[16]; 125 g ai/ha Postemergence,70
same,"Plant response rating, Poinsettia, Wild",[16]; 125 g ai/ha Preemergence,35
same,"Plant response rating, Poinsettia, Wild",[16]; Preemergence,0
